The source of these data is ChEMBL document CHEMBL3627624, “New natural product carbonic anhydrase inhibitors incorporating phenol moieties” (Bioorg Med Chem, 2015).

T4 sequence (P22748 whole entry): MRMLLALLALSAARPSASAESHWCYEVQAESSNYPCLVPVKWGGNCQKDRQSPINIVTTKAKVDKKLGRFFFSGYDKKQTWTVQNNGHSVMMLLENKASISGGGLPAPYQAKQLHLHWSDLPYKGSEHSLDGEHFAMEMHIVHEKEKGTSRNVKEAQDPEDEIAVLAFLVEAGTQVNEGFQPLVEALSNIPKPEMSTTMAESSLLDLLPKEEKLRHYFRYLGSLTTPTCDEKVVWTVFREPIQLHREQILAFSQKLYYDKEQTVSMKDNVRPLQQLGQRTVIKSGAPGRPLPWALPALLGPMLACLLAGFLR
T1 sequence (O43570 whole entry): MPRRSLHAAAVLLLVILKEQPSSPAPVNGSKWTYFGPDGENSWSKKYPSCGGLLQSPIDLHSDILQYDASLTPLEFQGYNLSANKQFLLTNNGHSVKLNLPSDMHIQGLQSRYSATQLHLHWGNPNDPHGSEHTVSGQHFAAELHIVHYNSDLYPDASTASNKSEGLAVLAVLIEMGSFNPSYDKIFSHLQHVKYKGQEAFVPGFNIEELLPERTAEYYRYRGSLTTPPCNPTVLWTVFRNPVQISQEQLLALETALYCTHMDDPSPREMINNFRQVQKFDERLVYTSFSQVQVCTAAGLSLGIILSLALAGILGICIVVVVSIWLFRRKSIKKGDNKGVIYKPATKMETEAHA
Carbonic anhydrase 7, sequence (P43166 whole entry): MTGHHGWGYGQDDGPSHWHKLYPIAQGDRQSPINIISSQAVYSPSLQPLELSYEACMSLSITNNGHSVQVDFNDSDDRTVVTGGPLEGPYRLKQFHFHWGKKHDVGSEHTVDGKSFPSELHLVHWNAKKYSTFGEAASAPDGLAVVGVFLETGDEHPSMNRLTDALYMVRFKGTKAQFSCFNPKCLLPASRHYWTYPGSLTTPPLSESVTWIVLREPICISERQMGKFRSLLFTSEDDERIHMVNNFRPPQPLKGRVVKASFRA

The first experiment has as its target T1, Carbonic anhydrase 12 (Homo sapiens, UniProt O43570). The experiment is described as follows: Inhibition of human recombinant carbonic anhydrase 12 preincubated for 15 mins at room temperature/6 hrs at 4 deg C by stopped-flow CO2 hydration assay.
Regarding `O=c1c(O[C@@H]2O[C@H](CO)[C@@H](O)[C@H](O)[C@H]2O)c(-c2ccc(O)cc2)oc2cc(O)cc(O)c12` [ASTRAGALIN], the Ki turned out to be 0.0049 µM.
As to `O=C(/C=C/c1ccc(O)cc1)OC[C@H]1O[C@@H](Oc2c(-c3ccc(O)cc3)oc3cc(O)cc(O)c3c2=O)[C@H](OC(=O)/C=C/c2ccc(O)cc2)[C@@H](O)[C@@H]1O`, the Ki was 0.409 µM.
With `O=C(/C=C/c1ccc(O)c(O)c1/C=C/c1ccc(O)c(O)c1)O[C@H](Cc1ccc(O)c(O)c1)C(=O)O` [SALVIANOLIC ACID A], the Ki came to 0.0398 µM.
For the compound `O=c1cc(-c2ccccc2)oc2cc(O)cc(O)c12` [CHRYSIN], the Ki was 0.0347 µM.
The same measure, in the same setting: in the case of `O=c1c(O)c(-c2ccc(O)cc2)oc2cc(O)cc(O)c12` [KAEMPFEROL] it was 0.146 µM; in that of `O=C(/C=C/c1ccc(O)cc1)OC[C@H]1O[C@@H](Oc2c(-c3ccc(O)cc3)oc3cc(O)cc(O)c3c2=O)[C@H](O)[C@@H](O)[C@@H]1O` [TILIROSIDE], 0.134 µM.
With `COc1cc(-c2oc3cc(O)cc(O)c3c(=O)c2O)ccc1O` [ISORHAMNETIN], the Ki was found to be 0.0549 µM.
The same measure, in the same setting: in the case of `O=c1cc(-c2ccc(O)c(O)c2)oc2cc(O)cc(O)c12` [LUTEOLIN] it was 0.0603 µM; in that of `COc1ccc([C@@H]2CC(=O)c3c(O)cc(O)cc3O2)cc1O` [HESPERETIN], 0.454 µM; in that of `COc1ccc(-c2coc3cc(O)cc(O)c3c2=O)cc1` [BIOCHANIN], 0.0525 µM.

A further experiment addresses T2, Carbonic anhydrase 2 (Homo sapiens, UniProt P00918). Put plainly: Inhibition of human recombinant carbonic anhydrase 2 preincubated for 15 mins at room temperature/6 hrs at 4 deg C by stopped-flow CO2 hydration assay.
As to `O=c1c(O[C@@H]2O[C@H](CO)[C@@H](O)[C@H](O)[C@H]2O)c(-c2ccc(O)cc2)oc2cc(O)cc(O)c12` [ASTRAGALIN], the Ki is 0.168 µM.
Same read-out and setting: with `O=C(/C=C/c1ccc(O)cc1)OC[C@H]1O[C@@H](Oc2c(-c3ccc(O)cc3)oc3cc(O)cc(O)c3c2=O)[C@H](OC(=O)/C=C/c2ccc(O)cc2)[C@@H](O)[C@@H]1O` the figure was 8.79 µM; with `O=C(/C=C/c1ccc(O)c(O)c1/C=C/c1ccc(O)c(O)c1)O[C@H](Cc1ccc(O)c(O)c1)C(=O)O` [SALVIANOLIC ACID A], 9.59 µM; with `O=c1cc(-c2ccccc2)oc2cc(O)cc(O)c12` [CHRYSIN], greater than 10 µM.
Still for that read-out and setting: in the case of `O=c1c(O)c(-c2ccc(O)cc2)oc2cc(O)cc(O)c12` [KAEMPFEROL] it was 9.53 µM; in that of `O=C(/C=C/c1ccc(O)cc1)OC[C@H]1O[C@@H](Oc2c(-c3ccc(O)cc3)oc3cc(O)cc(O)c3c2=O)[C@H](O)[C@@H](O)[C@@H]1O` [TILIROSIDE], greater than 10 µM; in that of `COc1cc(-c2oc3cc(O)cc(O)c3c(=O)c2O)ccc1O` [ISORHAMNETIN], greater than 10 µM.
As for `O=c1cc(-c2ccc(O)c(O)c2)oc2cc(O)cc(O)c12` [LUTEOLIN], the Ki came to 3.69 µM.
Regarding `COc1ccc([C@@H]2CC(=O)c3c(O)cc(O)cc3O2)cc1O` [HESPERETIN], the Ki is greater than 10 µM.
Regarding `COc1ccc(-c2coc3cc(O)cc(O)c3c2=O)cc1` [BIOCHANIN], the Ki is greater than 10 µM.

The target of the next experiment is T2, Carbonic anhydrase 2. Put plainly: Inhibition of human recombinant carbonic anhydrase 2.
As for `COc1cc(-c2oc3cc(O)cc(O)c3c(=O)c2O)ccc1O` [ISORHAMNETIN], the Ki came to 0.44 µM.

A further experiment deals with T1, Carbonic anhydrase 12. The experiment is described as follows: Inhibition of human recombinant carbonic anhydrase 12.
Regarding `COc1cc(-c2oc3cc(O)cc(O)c3c(=O)c2O)ccc1O` [ISORHAMNETIN], the Ki worked out at 0.22 µM.

Another experiment deals with T3, Carbonic anhydrase 1 (Homo sapiens, UniProt P00915). The experiment is described as follows: Inhibition of human recombinant carbonic anhydrase 1 preincubated for 15 mins at room temperature/6 hrs at 4 deg C by stopped-flow CO2 hydration assay.
T3 sequence (P00915 whole entry): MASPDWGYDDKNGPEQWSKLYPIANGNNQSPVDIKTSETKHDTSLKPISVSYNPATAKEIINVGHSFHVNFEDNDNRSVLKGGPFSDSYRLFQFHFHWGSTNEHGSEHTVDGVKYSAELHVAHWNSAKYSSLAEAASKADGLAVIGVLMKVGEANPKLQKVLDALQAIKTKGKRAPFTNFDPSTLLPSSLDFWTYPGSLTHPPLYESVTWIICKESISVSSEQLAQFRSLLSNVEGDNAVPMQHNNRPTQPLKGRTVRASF
On to `O=c1c(O[C@@H]2O[C@H](CO)[C@@H](O)[C@H](O)[C@H]2O)c(-c2ccc(O)cc2)oc2cc(O)cc(O)c12` [ASTRAGALIN], for which the Ki is greater than 10 µM.
On the same count and under the same terms, in the case of `O=C(/C=C/c1ccc(O)cc1)OC[C@H]1O[C@@H](Oc2c(-c3ccc(O)cc3)oc3cc(O)cc(O)c3c2=O)[C@H](OC(=O)/C=C/c2ccc(O)cc2)[C@@H](O)[C@@H]1O` it was greater than 10 µM.
Same read-out and setting: with `O=C(/C=C/c1ccc(O)c(O)c1/C=C/c1ccc(O)c(O)c1)O[C@H](Cc1ccc(O)c(O)c1)C(=O)O` [SALVIANOLIC ACID A] the figure was greater than 10 µM.
Still for that read-out and setting: with `O=c1cc(-c2ccccc2)oc2cc(O)cc(O)c12` [CHRYSIN] the figure was greater than 10 µM.
For `O=c1c(O)c(-c2ccc(O)cc2)oc2cc(O)cc(O)c12` [KAEMPFEROL], the Ki was greater than 10 µM.
On the same count and under the same terms, with `O=C(/C=C/c1ccc(O)cc1)OC[C@H]1O[C@@H](Oc2c(-c3ccc(O)cc3)oc3cc(O)cc(O)c3c2=O)[C@H](O)[C@@H](O)[C@@H]1O` [TILIROSIDE] the figure was greater than 10 µM; with `COc1cc(-c2oc3cc(O)cc(O)c3c(=O)c2O)ccc1O` [ISORHAMNETIN], greater than 10 µM; with `O=c1cc(-c2ccc(O)c(O)c2)oc2cc(O)cc(O)c12` [LUTEOLIN], greater than 10 µM.
Still for that read-out and setting: with `COc1ccc([C@@H]2CC(=O)c3c(O)cc(O)cc3O2)cc1O` [HESPERETIN] the figure was greater than 10 µM; with `COc1ccc(-c2coc3cc(O)cc(O)c3c2=O)cc1` [BIOCHANIN], greater than 10 µM.

The next experiment concerns the target T4, Carbonic anhydrase 4 (Homo sapiens, UniProt P22748). Put plainly: Inhibition of human recombinant carbonic anhydrase 4.
Consider `O=c1cc(-c2ccc(O)c(O)c2)oc2cc(O)cc(O)c12` [LUTEOLIN], for which the Ki amounted to 0.293 µM.

The target in a further experiment is T3, Carbonic anhydrase 1. Put plainly: Inhibition of human recombinant carbonic anhydrase 1.
Consider `COc1cc(-c2oc3cc(O)cc(O)c3c(=O)c2O)ccc1O` [ISORHAMNETIN], for which the Ki was greater than 10 µM.

A further experiment concerns the target T4, Carbonic anhydrase 4. Put plainly: Inhibition of human recombinant carbonic anhydrase 4 preincubated for 15 mins at room temperature/6 hrs at 4 deg C by stopped-flow CO2 hydration assay.
Take `O=c1c(O[C@@H]2O[C@H](CO)[C@@H](O)[C@H](O)[C@H]2O)c(-c2ccc(O)cc2)oc2cc(O)cc(O)c12` [ASTRAGALIN]: the Ki is 5.59 µM.
The same measure, in the same setting: with `O=C(/C=C/c1ccc(O)cc1)OC[C@H]1O[C@@H](Oc2c(-c3ccc(O)cc3)oc3cc(O)cc(O)c3c2=O)[C@H](OC(=O)/C=C/c2ccc(O)cc2)[C@@H](O)[C@@H]1O` the figure was 0.344 µM; with `O=C(/C=C/c1ccc(O)c(O)c1/C=C/c1ccc(O)c(O)c1)O[C@H](Cc1ccc(O)c(O)c1)C(=O)O` [SALVIANOLIC ACID A], 0.0666 µM; with `O=c1cc(-c2ccccc2)oc2cc(O)cc(O)c12` [CHRYSIN], 0.538 µM.
With `O=c1c(O)c(-c2ccc(O)cc2)oc2cc(O)cc(O)c12` [KAEMPFEROL], the Ki was greater than 10 µM.
Same read-out and setting: in the case of `O=C(/C=C/c1ccc(O)cc1)OC[C@H]1O[C@@H](Oc2c(-c3ccc(O)cc3)oc3cc(O)cc(O)c3c2=O)[C@H](O)[C@@H](O)[C@@H]1O` [TILIROSIDE] it was 5.47 µM; in that of `COc1cc(-c2oc3cc(O)cc(O)c3c(=O)c2O)ccc1O` [ISORHAMNETIN], 0.213 µM.
For the compound `COc1ccc([C@@H]2CC(=O)c3c(O)cc(O)cc3O2)cc1O` [HESPERETIN], the Ki is 0.102 µM.
On the same count and under the same terms, with `COc1ccc(-c2coc3cc(O)cc(O)c3c2=O)cc1` [BIOCHANIN] the figure was 7.08 µM.

A further experiment concerns the target Carbonic anhydrase 7 (Homo sapiens, UniProt P43166). Put plainly: Inhibition of human recombinant carbonic anhydrase 7 preincubated for 15 mins at room temperature/6 hrs at 4 deg C by stopped-flow CO2 hydration assay.
Take `O=c1c(O[C@@H]2O[C@H](CO)[C@@H](O)[C@H](O)[C@H]2O)c(-c2ccc(O)cc2)oc2cc(O)cc(O)c12` [ASTRAGALIN]: the Ki stood at 0.424 µM.
For `O=C(/C=C/c1ccc(O)cc1)OC[C@H]1O[C@@H](Oc2c(-c3ccc(O)cc3)oc3cc(O)cc(O)c3c2=O)[C@H](OC(=O)/C=C/c2ccc(O)cc2)[C@@H](O)[C@@H]1O`, the Ki is 0.0047 µM.
Same read-out and setting: in the case of `O=C(/C=C/c1ccc(O)c(O)c1/C=C/c1ccc(O)c(O)c1)O[C@H](Cc1ccc(O)c(O)c1)C(=O)O` [SALVIANOLIC ACID A] it was 0.0714 µM.
In the case of `O=c1cc(-c2ccccc2)oc2cc(O)cc(O)c12` [CHRYSIN], the Ki was 0.171 µM.
As for `O=c1c(O)c(-c2ccc(O)cc2)oc2cc(O)cc(O)c12` [KAEMPFEROL], the Ki worked out at 0.025 µM.
As for `O=C(/C=C/c1ccc(O)cc1)OC[C@H]1O[C@@H](Oc2c(-c3ccc(O)cc3)oc3cc(O)cc(O)c3c2=O)[C@H](O)[C@@H](O)[C@@H]1O` [TILIROSIDE], the Ki came to 0.0046 µM.
On the same count and under the same terms, with `COc1cc(-c2oc3cc(O)cc(O)c3c(=O)c2O)ccc1O` [ISORHAMNETIN] the figure was 0.0044 µM; with `O=c1cc(-c2ccc(O)c(O)c2)oc2cc(O)cc(O)c12` [LUTEOLIN], 0.0047 µM.
Take `COc1ccc([C@@H]2CC(=O)c3c(O)cc(O)cc3O2)cc1O` [HESPERETIN]: the Ki was 0.0033 µM.
On the same count and under the same terms, in the case of `COc1ccc(-c2coc3cc(O)cc(O)c3c2=O)cc1` [BIOCHANIN] it was 0.372 µM.

As usually defined, the Ki is the equilibrium dissociation constant of an inhibitor or competing ligand from its target.
